Results on 21 molecules are retold here after patent US12545672B2, “Antibiotic compounds, methods of manufacturing the same, pharmaceutical compositions containing the same and uses thereof” (Debiopharm International S.A., priority 2018, dated 2026).

Like-named read-outs stand apart in the source and are kept apart here.

The term MIC50 denotes an inhibitory concentration at the 50% level, which refers to growth in some studies and to a panel of isolates in others. What is called IC50 is the concentration at which inhibition is half-maximal.

One data set deals with Neisseria gonorrhoeae. Briefly: MIC50 by CLSI agar dilution on a panel of N. gonorrhoeae clinical isolates. It counts as cell-based. To be noted: Neisseria gonorrhoeae. The procedure: MIC50: MICs were determined in accordance with the appropriate Clinical and Laboratory Standards Institute (CLSI) methodology by the agar dilution susceptbility testing method in GC agar base.
For orientation: In agar dilution the substance is mixed into plates at graded concentrations.

Data set [1] in a line: Prediction of hepatic extraction ratio from liver microsome stability. It counts as in vitro ADME. Particulars: human liver microsomes, Well-Stirred model.
Data set [2] is described as follows: Mouse cassette PK and oral bioavailability determination. It counts as in vivo, Female BALB/c mice. Particulars: female, BALB/c, mouse, plasma; iv 1 mg/kg, po 2 mg/kg, cassette dosing; read-out: Mouse F (%). The procedure:
Dose volumes were 5 ml/kg and 10 ml/kg for IV and oral administration, respectively. Compounds were co-formulated in a 10% DMSO (v/v) and 40% Captisol (w/v) in saline solution formulation (up to 3 compounds in a cassette). […] Tmax, Cmax, AUC, clearance, volume of distribution and oral bioavailability were estimated from the plasma concentrations using non-compartmental pharmacokinetic models. In particular, oral bioavailability (F %) was defined as F=(Doseiv*AUCpo)/(Dosepo*AUCiv)*100

Data set [3] has as its target Neisseria gonorrhoeae FabI (Neisseria gonorrhoeae, UniProt A0ACH0F547). Briefly: Neisseria gonorrhoeae FabI inhibition assay (NADH consumption).
The mark [4] stands for this setting: agar dilution, GC agar base, minimum of 15 clinical isolates, read-out: MIC50.

Sequence of Neisseria gonorrhoeae FabI (A0ACH0F547 1-261): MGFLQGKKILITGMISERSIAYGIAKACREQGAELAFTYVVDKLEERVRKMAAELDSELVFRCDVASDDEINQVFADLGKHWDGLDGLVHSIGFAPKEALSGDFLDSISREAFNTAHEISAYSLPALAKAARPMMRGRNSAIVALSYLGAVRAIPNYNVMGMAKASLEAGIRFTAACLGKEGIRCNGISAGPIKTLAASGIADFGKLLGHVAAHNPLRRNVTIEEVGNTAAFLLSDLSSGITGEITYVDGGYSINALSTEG

`Cc1oc2c(Oc3ccc(C#N)cc3)cccc2c1CN(C)C(=O)/C=C/c1cnc2c(c1)NCCC(=O)N2` [Compound 80, (E)-N-((7-(4-cyanophenoxy)-2-methylbenzofuran-3-yl)methyl)-N-methyl-3-(4-oxo-2,3,4,5-tetrahydro-1H-pyrido[2,3-b][1,4]diazepin-8-yl)acrylamide] displayed an MIC50 against Neisseria gonorrhoeae below 1 µg/mL. Also, the “Predict Human hep ER” value in data set [1] is listed as 0.25. Moreover, the bioavailability in data set [2] came to 35%. In addition, the half-inhibitory concentration (IC50) in data set [3] was below 10 nM.

Consider `Cc1oc2c(Oc3ccc4c(c3)OCO4)cccc2c1CN(C)C(=O)/C=C/c1cnc2c(c1)NCCC(=O)N2` [Compound 119, (E)-N-((7-(Benzo[d][1,3]dioxol-5-yloxy)-2-methylbenzofuran-3-yl)methyl)-N-methyl-3-(4-oxo-2,3,4,5-tetrahydro-1H-pyrido[2,3-b][1,4]diazepin-8-yl)acrylamide], for which the MIC50 in the data set on Neisseria gonorrhoeae (setting [4]) was below 1 µg/mL. Also, the “Predict Human hep ER” value in data set [1] is on record as 0.08. This molecule came in with a 50% inhibitory concentration (IC50) in data set [3] below 10 nM.

`Cc1oc2c(Oc3ccc(C#N)cc3)cccc2c1CN(C)C(=O)/C=C/c1cnc2c(c1)NC[C@@](C)(O)C(=O)N2` [Compound 152, (R,E)-N-((7-(4-cyanophenoxy)-2-methylbenzofuran-3-yl)methyl)-3-(3-hydroxy-3-methyl-4-oxo-2,3,4,5-tetrahydro-1H-pyrido[2,3-b][1,4]diazepin-8-yl)-N-methylacrylamide] registered an MIC50 against Neisseria gonorrhoeae below 1 µg/mL. The molecule also returned an IC50 in data set [3] below 10 nM.

As for `C[C@@]1(O)CNc2cc(/C=C/C(=O)N3C[C@H]4CC(c5ccc(Oc6ccccc6)cc5)=C[C@H]4C3)cnc2NC1=O` [Compound 159, (R)-3-hydroxy-3-methyl-8-((E)-3-oxo-3-((3aS,6aR)-5-(4-phenoxyphenyl)-3,3a,4,6a-tetrahydrocyclopenta[c]pyrrol-2(1H)-yl)prop-1-en-1-yl)-1,2,3,5-tetrahydro-4H-pyrido[2,3-b][1,4]diazepin-4-one], the MIC50 with Neisseria gonorrhoeae (setting [4]) was below 1 µg/mL. The molecule further registered a half-inhibitory concentration (IC50) in data set [3] below 10 nM.

Take `Cc1oc2c(Oc3ccc4c(c3)OCC4)cccc2c1CN(C)C(=O)/C=C/c1cnc2c(c1)NC(C)(C)C(=O)N2` [Compound 164, (E)-N-((7-((2,3-dihydrobenzofuran-6-yl)oxy)-2-methylbenzofuran-3-yl)methyl)-3-(2,2-dimethyl-3-oxo-1,2,3,4-tetrahydropyrido[2,3-b]pyrazin-7-yl)-N-methylacrylamide]: the MIC50 in the data set with Neisseria gonorrhoeae (setting [4]) was below 1 µg/mL. For the same molecule, the IC50 in data set [3] was below 10 nM.

For the molecule `Cc1oc2c(N)cccc2c1CN(C)C(=O)/C=C/c1cnc2c(c1)NC[C@@](C)(O)C(=O)N2` [Compound 167, (R,E)-N-((7-amino-2-methylbenzofuran-3-yl)methyl)-3-(3-hydroxy-3-methyl-4-oxo-2,3,4,5-tetrahydro-1H-pyrido[2,3-b][1,4]diazepin-8-yl)-N-methylacrylamide], in the data set on Neisseria gonorrhoeae (setting [4]), the MIC50 is below 1 µg/mL. Moreover, the IC50 in data set [3] is below 10 nM.

With `Cc1oc2c(N)cccc2c1CN(C)C(=O)/C=C/c1cnc2c(c1)CCCC(=O)N2` [Compound 168, (E)-N-((7-amino-2-methylbenzofuran-3-yl)methyl)-N-methyl-3-(8-oxo-6,7,8,9-tetrahydro-5H-pyrido[2,3-b]azepin-3-yl)acrylamide], in the data set on Neisseria gonorrhoeae (setting [4]), the MIC50 was below 1 µg/mL. Besides, the IC50 in data set [3] is below 10 nM.

Consider `Cc1oc2ccccc2c1CN(C)C(=O)/C=C/c1cnc2c(c1)NCCC(=O)N2` [Compound 170, (E)-N-Methyl-N-((2-methylbenzofuran-3-yl)methyl)-3-(4-oxo-2,3,4,5-tetrahydro-1H-pyrido[2,3-b][1,4]diazepin-8-yl)acrylamide], for which the MIC50 in the data set with Neisseria gonorrhoeae (setting [4]) is below 1 µg/mL. In data set [3], this molecule displayed an IC50 below 10 nM.

On to `Cc1oc2c(Oc3ccc4c(c3)CCN4)cccc2c1CN(C)C(=O)/C=C/c1cnc2c(c1)CCCC(=O)N2` [Compound 180, (E)-N-((7-(indolin-5-yloxy)-2-methylbenzofuran-3-yl)methyl)-N-methyl-3-(8-oxo-6,7,8,9-tetrahydro-5H-pyrido[2,3-b]azepin-3-yl)acrylamide], for which the MIC50 in the data set with Neisseria gonorrhoeae (setting [4]) was below 1 µg/mL. The molecule further displayed an IC50 in data set [3] below 10 nM.

For the molecule `Cc1oc2c(Oc3ccc4c(c3)OCC4)cccc2c1CN(C)C(=O)/C=C/c1cnc2c(c1)NC[C@@](C)(O)C(=O)N2` [Compound 182, (R,E)-N-((7-((2,3-dihydrobenzofuran-6-yl)oxy)-2-methylbenzofuran-3-yl)methyl)-3-(3-hydroxy-3-methyl-4-oxo-2,3,4,5-tetrahydro-1H-pyrido[2,3-b][1,4]diazepin-8-yl)-N-methylacrylamide], the MIC50 with Neisseria gonorrhoeae (setting [4]) is below 1 µg/mL. In addition, in data set [3], the IC50 was below 10 nM.

As to `COc1cccc(Oc2cccc3c(CN(C)C(=O)/C=C/c4cnc5c(c4)NC[C@@](C)(O)C(=O)N5)c(C)oc23)c1` [Compound 183, (R,E)-3-(3-hydroxy-3-methyl-4-oxo-2,3,4,5-tetrahydro-1H-pyrido[2,3-b][1,4]diazepin-8-yl)-N-((7-(3-methoxyphenoxy)-2-methylbenzofuran-3-yl)methyl)-N-methylacrylamide], the MIC50 in the data set on Neisseria gonorrhoeae (setting [4]) was below 1 µg/mL. Besides, the bioavailability in data set [2] turned out to be 16%. The IC50 in data set [3] was below 10 nM.

Regarding `COc1cccc(Oc2cccc3c(CN(C)C(=O)/C=C/c4cnc5c(c4)CCCC(=O)N5)c(C)oc23)c1` [Compound 186, (E)-N-((7-(3-methoxyphenoxy)-2-methylbenzofuran-3-yl)methyl)-N-methyl-3-(8-oxo-6,7,8,9-tetrahydro-5H-pyrido[2,3-b]azepin-3-yl)acrylamide], in the data set on Neisseria gonorrhoeae (setting [4]), the MIC50 is below 1 µg/mL. This molecule had a half-inhibitory concentration (IC50) in data set [3] below 10 nM.

Take `COc1cccc(Oc2cccc3c(CN(C)C(=O)/C=C/c4cnc5c(c4)CCCC(=O)N5)c(C)sc23)c1` [Compound 194, (E)-N-((7-(3-methoxyphenoxy)-2-methylbenzo[b]thiophen-3-yl)methyl)-N-methyl-3-(8-oxo-6,7,8,9-tetrahydro-5H-pyrido[2,3-b]azepin-3-yl)acrylamide]: in the data set with Neisseria gonorrhoeae (setting [4]), the MIC50 was below 1 µg/mL. Further, the bioavailability in data set [2] is 12%. In addition, in data set [3], the half-maximal inhibitory concentration (IC50) was below 10 nM.

Regarding `Cc1c(CN(C)C(=O)/C=C/c2cnc3c(c2)N[C@H](C)CC(=O)N3)oc2ccccc12` [Compound 214, (E)-N-methyl-N-[(3-methylbenzofuran-2-yl)methyl]-3-[(2R)-2-methyl-4-oxo-1,2,3,5-tetrahydropyrido[2,3-b][1,4]diazepin-8-yl]prop-2-enamide], the MIC50 in the data set with Neisseria gonorrhoeae (setting [4]) is below 1 µg/mL. The same molecule registered a concentration for half-maximal inhibition (IC50) in data set [3] below 10 nM.

Consider `Cc1c(CN(C)C(=O)/C=C/c2cnc3c(c2)NC[C@@H](O)C(=O)N3)oc2ccccc12` [Compound 229, (R,E)-3-(3-Hydroxy-4-oxo-2,3,4,5-tetrahydro-1H-pyrido[2,3-b][1,4]diazepin-8-yl)-N-methyl-N-((3-methylbenzofuran-2-yl)methyl)acrylamide], for which, in the data set with Neisseria gonorrhoeae (setting [4]), the MIC50 is below 1 µg/mL. The IC50 in data set [3] is below 10 nM.

With `Cc1c(CN(C)C(=O)/C=C/c2cnc3c(c2)NC[C@H](O)C(=O)N3)oc2ccccc12` [Compound 230, (S,E)-3-(3-Hydroxy-4-oxo-2,3,4,5-tetrahydro-1H-pyrido[2,3-b][1,4]diazepin-8-yl)-N-methyl-N-((3-methylbenzofuran-2-yl)methyl)acrylamide], the MIC50 in the data set on Neisseria gonorrhoeae (setting [4]) was below 1 µg/mL. In addition, the IC50 in data set [3] was below 10 nM.

With `CCC1(O)Cc2cc(/C=C/C(=O)N(C)Cc3oc4ccccc4c3C)cnc2NC1=O` (centres unmarked) [Compound 252, (E)-3-(6-ethyl-6-hydroxy-7-oxo-5,6,7,8-tetrahydro-1,8-naphthyridin-3-yl)-N-methyl-N-((3-methylbenzofuran-2-yl)methyl)acrylamide], the MIC50 in the data set on Neisseria gonorrhoeae (setting [4]) was below 1 µg/mL. Further, the concentration for half-maximal inhibition (IC50) in data set [3] is below 10 nM.

For the molecule `Cc1c(CN(C)C(=O)/C=C/c2cnc3c(c2)NCC(CO)C(=O)N3)oc2ccccc12` (centres unmarked) [Compound 270, (E)-3-(3-(hydroxymethyl)-4-oxo-2,3,4,5-tetrahydro-1H-pyrido[2,3-b][1,4]diazepin-8-yl)-N-methyl-N-((3-methylbenzofuran-2-yl)methyl)acrylamide], the MIC50 in the data set on Neisseria gonorrhoeae (setting [4]) is below 1 µg/mL. In addition, the IC50 in data set [3] was below 10 nM.

As for `Cc1oc2c(N)cccc2c1CN(C)C(=O)/C=C/c1cnc2c(c1)NC[C@H](O)C(=O)N2` [Compound 276, (S,E)-N-((7-amino-2-methylbenzofuran-3-yl)methyl)-3-(3-hydroxy-4-oxo-2,3,4,5-tetrahydro-1H-pyrido[2,3-b][1,4]diazepin-8-yl)-N-methylacrylamide], the MIC50 in the data set with Neisseria gonorrhoeae (setting [4]) is below 1 µg/mL. Further, the bioavailability in data set [2] worked out at 43%. In data set [3], this molecule registered a 50% inhibitory concentration (IC50) below 10 nM.

In the case of `Cc1oc2c(N)cccc2c1CN(C)C(=O)/C=C/c1cnc2c(c1)NC(C)(C)C(=O)N2` [Compound 287, (E)-N-((7-amino-2-methylbenzofuran-3-yl)methyl)-3-(2,2-dimethyl-3-oxo-1,2,3,4-tetrahydropyrido[2,3-b]pyrazin-7-yl)-N-methylacrylamide], the MIC50 in the data set on Neisseria gonorrhoeae (setting [4]) is below 1 µg/mL. In addition, the “Predict Human hep ER” value in data set [1] is given as 0.34. In data set [3], this molecule displayed an IC50 below 10 nM.

Consider `Cc1oc2c(N)cccc2c1CN(C)C(=O)/C=C/c1cnc2c(c1)N[C@H](C)[C@H](O)C(=O)N2` [Compound 290, (E)-N-((7-amino-2-methylbenzofuran-3-yl)methyl)-3-((2R,3S)-3-hydroxy-2-methyl-4-oxo-2,3,4,5-tetrahydro-1H-pyrido[2,3-b][1,4]diazepin-8-yl)-N-methylacrylamide], for which the MIC50 in the data set on Neisseria gonorrhoeae (setting [4]) is below 1 µg/mL. The “Predict Human hep ER” value in data set [1] was 0.1. The molecule also returned a half-maximal inhibitory concentration (IC50) in data set [3] below 10 nM.
